According to ChEMBL document CHEMBL5291721, “A preclinical secondary pharmacology resource illuminates target-adverse drug reaction associations of marketed drugs” (Nat Commun, 2023):

Legend:
[1] = target: T1, Muscarinic acetylcholine receptor M2 (Homo sapiens, UniProt P08172)
T1 sequence (P08172 whole entry): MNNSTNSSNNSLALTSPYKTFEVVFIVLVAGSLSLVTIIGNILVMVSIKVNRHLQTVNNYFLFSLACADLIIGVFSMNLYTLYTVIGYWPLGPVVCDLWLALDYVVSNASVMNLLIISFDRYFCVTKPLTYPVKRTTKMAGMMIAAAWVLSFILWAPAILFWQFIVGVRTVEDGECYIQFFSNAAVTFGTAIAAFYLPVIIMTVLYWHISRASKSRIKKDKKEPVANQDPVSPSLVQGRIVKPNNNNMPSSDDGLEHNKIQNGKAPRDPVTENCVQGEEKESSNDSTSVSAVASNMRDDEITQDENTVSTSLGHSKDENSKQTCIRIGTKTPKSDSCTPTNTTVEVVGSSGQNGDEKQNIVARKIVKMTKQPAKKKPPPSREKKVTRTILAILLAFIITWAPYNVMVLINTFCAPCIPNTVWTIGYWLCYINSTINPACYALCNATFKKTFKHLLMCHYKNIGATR

D(1A) dopamine receptor = D(1A) dopamine receptor (Homo sapiens, UniProt P21728)
Histamine H3 receptor = Histamine H3 receptor (Homo sapiens, UniProt Q9Y5N1)
Mu-type opioid receptor = Mu-type opioid receptor (Homo sapiens, UniProt P35372)
D(3) dopamine receptor = D(3) dopamine receptor (Homo sapiens, UniProt P35462)
Thromboxane A2 receptor [2] = target: T2, Thromboxane A2 receptor (Homo sapiens, UniProt P21731); format: functional, cell-based
T2 sequence (P21731 whole entry): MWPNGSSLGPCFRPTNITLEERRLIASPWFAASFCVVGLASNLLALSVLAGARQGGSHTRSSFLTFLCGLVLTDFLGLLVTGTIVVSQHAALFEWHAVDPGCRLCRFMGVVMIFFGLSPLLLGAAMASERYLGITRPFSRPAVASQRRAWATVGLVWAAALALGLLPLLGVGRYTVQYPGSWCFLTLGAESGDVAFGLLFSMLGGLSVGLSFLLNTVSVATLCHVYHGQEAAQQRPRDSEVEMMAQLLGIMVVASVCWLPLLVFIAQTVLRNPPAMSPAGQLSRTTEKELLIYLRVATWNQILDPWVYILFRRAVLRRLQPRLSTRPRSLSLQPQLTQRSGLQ

Acetylcholinesterase = Acetylcholinesterase (Homo sapiens, UniProt P22303); format: functional
[3] = target: Prostaglandin G/H synthase 1 (Homo sapiens, UniProt P23219); format: functional
Thromboxane A2 receptor [4] = target: T2, Thromboxane A2 receptor; format: functional, cell-based; remark: listed apart in the source
[5] = target: 5-hydroxytryptamine receptor 2B (Homo sapiens, UniProt P41595); format: functional, cell-based
Prothrombin = Prothrombin (Homo sapiens, UniProt P00734); format: functional
[6] = target: T3, Amine oxidase [flavin-containing] A (Homo sapiens, UniProt P21397); format: functional
T3 sequence (P21397 whole entry): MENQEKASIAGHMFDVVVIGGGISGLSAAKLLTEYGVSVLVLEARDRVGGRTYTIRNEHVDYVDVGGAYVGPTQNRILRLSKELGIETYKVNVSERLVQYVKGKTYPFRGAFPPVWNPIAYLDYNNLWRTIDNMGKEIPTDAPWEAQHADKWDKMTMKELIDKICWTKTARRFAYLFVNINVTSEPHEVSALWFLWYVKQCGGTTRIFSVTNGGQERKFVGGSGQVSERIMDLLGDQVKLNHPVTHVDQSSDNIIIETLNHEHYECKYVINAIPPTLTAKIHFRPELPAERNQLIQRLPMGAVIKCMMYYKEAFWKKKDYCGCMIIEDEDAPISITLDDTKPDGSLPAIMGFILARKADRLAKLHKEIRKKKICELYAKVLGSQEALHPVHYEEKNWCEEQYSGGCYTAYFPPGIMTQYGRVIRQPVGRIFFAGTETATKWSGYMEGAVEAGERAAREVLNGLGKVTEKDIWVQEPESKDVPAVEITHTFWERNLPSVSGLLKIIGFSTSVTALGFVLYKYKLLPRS

[7] = target: Sodium-dependent dopamine transporter (Homo sapiens, UniProt Q01959)
[8] = target: Voltage-gated inwardly rectifying potassium channel KCNH2 (Homo sapiens, UniProt Q12809); format: functional
[9] = target: T4, 5-hydroxytryptamine receptor 1A (Homo sapiens, UniProt P08908)
T4 sequence (P08908 whole entry): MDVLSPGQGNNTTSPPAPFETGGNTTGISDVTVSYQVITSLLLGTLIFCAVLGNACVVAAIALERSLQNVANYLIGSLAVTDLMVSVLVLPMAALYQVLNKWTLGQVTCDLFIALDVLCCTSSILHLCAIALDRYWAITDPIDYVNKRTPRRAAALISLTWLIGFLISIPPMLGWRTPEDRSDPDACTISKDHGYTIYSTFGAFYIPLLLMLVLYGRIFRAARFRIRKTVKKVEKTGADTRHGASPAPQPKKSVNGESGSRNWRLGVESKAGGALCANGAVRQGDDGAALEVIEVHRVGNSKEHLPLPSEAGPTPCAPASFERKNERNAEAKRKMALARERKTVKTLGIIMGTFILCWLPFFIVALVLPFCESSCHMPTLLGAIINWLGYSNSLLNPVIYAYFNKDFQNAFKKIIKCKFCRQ

[10] = target: Sodium-dependent noradrenaline transporter (Homo sapiens, UniProt P23975)
Further: assay procedure not described here.

Voltage-gated inwardly rectifying potassium channel KCNH2, sequence (Q12809 whole entry): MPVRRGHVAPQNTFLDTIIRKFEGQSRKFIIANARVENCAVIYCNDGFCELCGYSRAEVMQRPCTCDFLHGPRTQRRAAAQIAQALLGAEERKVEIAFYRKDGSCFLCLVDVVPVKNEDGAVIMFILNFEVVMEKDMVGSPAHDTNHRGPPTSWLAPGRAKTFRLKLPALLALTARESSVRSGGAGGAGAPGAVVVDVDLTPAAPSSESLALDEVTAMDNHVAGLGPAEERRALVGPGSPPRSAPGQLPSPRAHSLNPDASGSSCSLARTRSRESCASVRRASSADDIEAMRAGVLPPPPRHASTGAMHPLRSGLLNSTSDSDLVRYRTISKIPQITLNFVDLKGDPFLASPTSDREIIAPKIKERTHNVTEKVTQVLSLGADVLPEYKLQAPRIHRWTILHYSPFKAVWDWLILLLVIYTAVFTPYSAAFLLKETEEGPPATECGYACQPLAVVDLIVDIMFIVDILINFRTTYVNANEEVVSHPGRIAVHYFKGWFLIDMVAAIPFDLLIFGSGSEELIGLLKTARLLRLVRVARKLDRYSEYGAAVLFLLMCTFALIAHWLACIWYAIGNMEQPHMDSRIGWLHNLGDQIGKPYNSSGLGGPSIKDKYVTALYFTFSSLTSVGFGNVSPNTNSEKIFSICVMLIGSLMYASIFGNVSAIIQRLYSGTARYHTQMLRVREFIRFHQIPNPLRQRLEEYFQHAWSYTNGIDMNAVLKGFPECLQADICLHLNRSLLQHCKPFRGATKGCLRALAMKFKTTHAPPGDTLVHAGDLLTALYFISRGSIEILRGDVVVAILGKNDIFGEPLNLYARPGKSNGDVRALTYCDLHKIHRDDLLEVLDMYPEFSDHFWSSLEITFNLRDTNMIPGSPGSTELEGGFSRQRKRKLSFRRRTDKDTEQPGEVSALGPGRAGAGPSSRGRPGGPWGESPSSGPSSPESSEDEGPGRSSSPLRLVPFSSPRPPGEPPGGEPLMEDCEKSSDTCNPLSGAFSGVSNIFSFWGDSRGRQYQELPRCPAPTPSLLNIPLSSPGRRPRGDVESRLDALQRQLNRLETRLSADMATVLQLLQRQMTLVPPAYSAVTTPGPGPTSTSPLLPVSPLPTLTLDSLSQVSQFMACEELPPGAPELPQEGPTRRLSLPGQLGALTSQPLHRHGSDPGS
Histamine H3 receptor, sequence (Q9Y5N1 whole entry): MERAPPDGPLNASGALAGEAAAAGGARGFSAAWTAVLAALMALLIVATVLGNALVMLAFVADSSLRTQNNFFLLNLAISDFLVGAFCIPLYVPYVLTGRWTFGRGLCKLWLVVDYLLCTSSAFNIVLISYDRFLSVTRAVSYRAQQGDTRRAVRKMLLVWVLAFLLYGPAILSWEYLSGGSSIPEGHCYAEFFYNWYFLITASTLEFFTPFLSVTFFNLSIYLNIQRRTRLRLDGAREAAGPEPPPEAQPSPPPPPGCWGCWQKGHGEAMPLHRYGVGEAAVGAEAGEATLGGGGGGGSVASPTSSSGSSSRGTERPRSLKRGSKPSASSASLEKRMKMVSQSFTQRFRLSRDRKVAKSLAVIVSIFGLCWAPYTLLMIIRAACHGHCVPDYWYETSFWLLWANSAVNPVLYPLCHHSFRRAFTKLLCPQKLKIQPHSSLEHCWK
Sodium-dependent noradrenaline transporter, sequence (P23975 whole entry): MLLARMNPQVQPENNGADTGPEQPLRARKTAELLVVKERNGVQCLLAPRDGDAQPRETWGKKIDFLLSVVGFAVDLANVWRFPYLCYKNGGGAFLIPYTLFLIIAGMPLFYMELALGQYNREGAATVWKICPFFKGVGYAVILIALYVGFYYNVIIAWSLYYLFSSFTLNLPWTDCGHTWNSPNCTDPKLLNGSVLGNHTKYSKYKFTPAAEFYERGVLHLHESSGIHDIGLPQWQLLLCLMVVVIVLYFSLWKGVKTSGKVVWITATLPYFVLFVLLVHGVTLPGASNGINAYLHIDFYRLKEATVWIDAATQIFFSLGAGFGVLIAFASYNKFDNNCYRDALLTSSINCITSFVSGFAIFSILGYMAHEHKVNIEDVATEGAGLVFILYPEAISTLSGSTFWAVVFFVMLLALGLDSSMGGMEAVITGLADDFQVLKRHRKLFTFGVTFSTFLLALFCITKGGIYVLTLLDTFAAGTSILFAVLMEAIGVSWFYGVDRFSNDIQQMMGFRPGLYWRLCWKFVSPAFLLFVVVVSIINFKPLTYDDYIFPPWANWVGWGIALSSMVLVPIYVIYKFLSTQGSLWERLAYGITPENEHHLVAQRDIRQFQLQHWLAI
Sodium-dependent dopamine transporter, sequence (Q01959 whole entry): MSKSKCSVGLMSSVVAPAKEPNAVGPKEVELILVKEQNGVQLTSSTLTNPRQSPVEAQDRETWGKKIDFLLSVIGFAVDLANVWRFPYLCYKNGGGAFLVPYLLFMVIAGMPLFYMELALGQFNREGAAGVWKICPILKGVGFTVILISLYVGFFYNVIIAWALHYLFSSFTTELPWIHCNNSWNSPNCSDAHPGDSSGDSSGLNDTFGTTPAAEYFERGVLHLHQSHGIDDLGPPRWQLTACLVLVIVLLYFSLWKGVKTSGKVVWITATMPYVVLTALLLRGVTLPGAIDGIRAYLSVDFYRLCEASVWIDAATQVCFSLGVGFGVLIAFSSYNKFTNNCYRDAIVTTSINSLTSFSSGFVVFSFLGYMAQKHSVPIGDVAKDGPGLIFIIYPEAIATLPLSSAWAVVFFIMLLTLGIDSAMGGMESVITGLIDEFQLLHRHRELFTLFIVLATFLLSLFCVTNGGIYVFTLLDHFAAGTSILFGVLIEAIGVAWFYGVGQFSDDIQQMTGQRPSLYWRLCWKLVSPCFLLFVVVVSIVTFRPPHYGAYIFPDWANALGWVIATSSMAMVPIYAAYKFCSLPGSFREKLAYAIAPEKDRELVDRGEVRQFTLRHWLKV
D(1A) dopamine receptor, sequence (P21728 whole entry): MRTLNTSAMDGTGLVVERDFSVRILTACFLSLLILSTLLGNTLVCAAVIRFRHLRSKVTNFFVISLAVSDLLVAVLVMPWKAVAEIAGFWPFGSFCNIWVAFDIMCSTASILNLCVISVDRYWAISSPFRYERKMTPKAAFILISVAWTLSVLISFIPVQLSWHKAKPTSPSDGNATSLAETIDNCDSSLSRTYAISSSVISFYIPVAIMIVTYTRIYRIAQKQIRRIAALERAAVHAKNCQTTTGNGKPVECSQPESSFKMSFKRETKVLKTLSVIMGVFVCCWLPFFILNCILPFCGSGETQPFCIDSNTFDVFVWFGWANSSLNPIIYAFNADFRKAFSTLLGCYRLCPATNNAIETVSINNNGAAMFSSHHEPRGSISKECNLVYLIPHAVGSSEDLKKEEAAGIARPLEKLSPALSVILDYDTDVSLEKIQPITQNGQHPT
5-hydroxytryptamine receptor 2B, sequence (P41595 whole entry): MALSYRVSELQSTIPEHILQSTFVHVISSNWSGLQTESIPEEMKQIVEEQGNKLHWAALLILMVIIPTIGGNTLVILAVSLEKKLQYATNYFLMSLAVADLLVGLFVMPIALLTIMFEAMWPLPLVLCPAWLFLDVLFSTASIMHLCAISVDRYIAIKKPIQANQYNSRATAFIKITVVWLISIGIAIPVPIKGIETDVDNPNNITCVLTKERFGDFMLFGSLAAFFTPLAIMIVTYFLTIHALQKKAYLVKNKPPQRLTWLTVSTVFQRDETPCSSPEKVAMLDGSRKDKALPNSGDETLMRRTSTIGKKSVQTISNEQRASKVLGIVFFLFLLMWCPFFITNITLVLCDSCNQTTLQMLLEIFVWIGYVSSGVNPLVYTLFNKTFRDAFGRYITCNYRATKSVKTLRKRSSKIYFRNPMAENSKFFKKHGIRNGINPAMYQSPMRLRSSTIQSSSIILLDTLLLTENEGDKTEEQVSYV
Prostaglandin G/H synthase 1, sequence (P23219 whole entry): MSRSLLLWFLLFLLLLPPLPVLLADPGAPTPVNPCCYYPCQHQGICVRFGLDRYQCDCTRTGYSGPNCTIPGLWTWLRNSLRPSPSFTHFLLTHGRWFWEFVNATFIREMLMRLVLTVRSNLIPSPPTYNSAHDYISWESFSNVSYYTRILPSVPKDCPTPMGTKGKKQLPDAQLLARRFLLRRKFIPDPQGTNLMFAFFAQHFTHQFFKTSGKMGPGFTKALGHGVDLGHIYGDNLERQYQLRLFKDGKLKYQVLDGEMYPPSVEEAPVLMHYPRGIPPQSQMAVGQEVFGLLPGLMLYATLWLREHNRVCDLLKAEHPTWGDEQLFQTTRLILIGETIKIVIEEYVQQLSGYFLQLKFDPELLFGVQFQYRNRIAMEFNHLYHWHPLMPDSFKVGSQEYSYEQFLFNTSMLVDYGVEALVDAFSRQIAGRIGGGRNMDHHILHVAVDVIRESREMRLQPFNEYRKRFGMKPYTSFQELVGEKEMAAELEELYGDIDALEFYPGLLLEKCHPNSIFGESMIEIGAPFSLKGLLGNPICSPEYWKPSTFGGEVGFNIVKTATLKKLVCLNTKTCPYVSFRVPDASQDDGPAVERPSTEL
D(3) dopamine receptor, sequence (P35462 whole entry): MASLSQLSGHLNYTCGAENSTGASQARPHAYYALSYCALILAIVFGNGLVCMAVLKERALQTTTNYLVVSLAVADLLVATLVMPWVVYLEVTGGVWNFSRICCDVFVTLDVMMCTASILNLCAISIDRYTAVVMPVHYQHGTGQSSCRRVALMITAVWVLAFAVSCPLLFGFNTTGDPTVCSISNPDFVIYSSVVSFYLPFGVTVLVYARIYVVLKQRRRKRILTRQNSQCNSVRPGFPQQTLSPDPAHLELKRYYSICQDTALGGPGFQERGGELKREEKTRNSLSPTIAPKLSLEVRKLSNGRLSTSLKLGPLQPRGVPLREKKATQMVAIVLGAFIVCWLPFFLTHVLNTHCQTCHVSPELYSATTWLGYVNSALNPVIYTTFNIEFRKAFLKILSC

| Compound | AC50 [1] | AC50 (D(1A) dopamine receptor) | AC50 (Histamine H3 receptor) | AC50 (Mu-type opioid receptor) | AC50 (D(3) dopamine receptor) | AC50 (Thromboxane A2 receptor [2]) | AC50 (Acetylcholinesterase) | AC50 [3] | AC50 (Thromboxane A2 receptor [4]) | AC50 [5] | AC50 (Prothrombin) | AC50 [6] | AC50 [7] | AC50 [8] | AC50 [9] | AC50 [10] |
| --- | --- | --- | --- | --- | --- | --- | --- | --- | --- | --- | --- | --- | --- | --- | --- | --- |
| COc1c2ccoc2cc2oc(=O)ccc12 [BERGAPTEN] | > 30 µM | > 30 µM | > 30 µM | > 30 µM | > 30 µM | > 30 µM | > 30 µM | > 30 µM | > 30 µM | > 30 µM | > 30 µM | > 10 µM | > 30 µM | > 30 µM | > 30 µM | > 30 µM |
| CNC(=O)Oc1cccc2ccccc12 [CARBARIL] | > 30 µM | > 30 µM | > 30 µM | > 30 µM | > 30 µM | > 30 µM | > 30 µM | 4.19 µM | > 30 µM | > 30 µM | > 30 µM | > 30 µM | > 30 µM | > 30 µM | > 30 µM | > 30 µM |
| CC[C@H](C)C[C@H](C)CCCCCCCCC(=O)N[C@H]1C[C@@H](O)[C@@H](NCCN)NC(=O)[C@@H]2[C@@H](O)CCN2C(=O)[C@H]([C@H](O)CCN)NC(=O)[C@H]([C@H](O)[C@@H](O)c2ccc(O)cc2)NC(=O)[C@@H]2C[C@@H](O)CN2C(=O)[C@H]([C@@H](C)O)NC1=O [CASPOFUNGIN] | 10.8 µM | 8.83 µM | > 30 µM | 5.12 µM | > 30 µM | > 30 µM | > 30 µM | 3.63 µM | > 30 µM | > 30 µM | > 30 µM | > 30 µM | 4.13 µM |  | > 30 µM | 5.03 µM |
| N[C@@H](CS)C(=O)O [CYSTEINE] | > 30 µM | > 30 µM | > 30 µM | > 30 µM | > 30 µM | > 30 µM | > 30 µM | > 30 µM | > 30 µM | > 30 µM | > 30 µM | > 30 µM | > 30 µM |  | > 30 µM | > 30 µM |
| CCc1nc(C(N)=O)c(Nc2ccc(N3CCC(N4CCN(C)CC4)CC3)c(OC)c2)nc1NC1CCOCC1 [GILTERITINIB] | 16.4 µM | > 30 µM | 13.7 µM | > 30 µM | 26.7 µM | > 0.3 µM | > 30 µM | > 30 µM | > 30 µM | > 30 µM | > 30 µM | > 30 µM | > 30 µM |  | > 30 µM | > 30 µM |
| O=C(O)CO [GLYCOLIC ACID] | > 30 µM | > 30 µM | > 30 µM | > 30 µM | > 30 µM | > 30 µM | > 30 µM | > 30 µM | > 30 µM | > 30 µM | > 30 µM | > 30 µM | > 30 µM |  | > 30 µM | > 30 µM |
| OC[C@H]1O[C@@H](c2ccc(F)c(Cc3cc4ccccc4s3)c2)[C@H](O)[C@@H](O)[C@@H]1O [IPRAGLIFLOZIN] | > 30 µM | > 30 µM | > 30 µM | > 30 µM | > 30 µM | > 30 µM | > 30 µM | > 30 µM | > 30 µM | > 30 µM | > 30 µM | > 30 µM | 7.69 µM |  | > 30 µM | > 30 µM |
| CN1CCCCC1CCN1c2ccccc2Sc2ccc([S+](C)[O-])cc21 (centres undefined) [MESORIDAZINE] | 0.153 µM | 0.0712 µM | 21.9 µM | 2.99 µM | 0.0197 µM | > 30 µM | > 30 µM | > 30 µM | > 30 µM | > 30 µM | > 30 µM | > 30 µM | 19.8 µM |  | 0.214 µM | 28.8 µM |
| CCOC(=O)c1c(C)cc2c(CO)n[nH]c(=O)c2c1C [OXAGRELATE] | > 30 µM | > 30 µM | > 30 µM | > 30 µM | > 30 µM | > 30 µM | > 30 µM | > 30 µM | > 30 µM | > 30 µM | > 30 µM | > 30 µM | > 30 µM |  | > 30 µM | > 30 µM |
| N#Cc1ccc2c(c1)N(CCCN1CCC(O)CC1)c1ccccc1S2 [PERICIAZINE] | 5.87 µM |  | > 30 µM | 4.59 µM |  | 17 µM | 29.1 µM | > 30 µM | > 30 µM | > 30 µM | > 30 µM | > 30 µM |  | 5.82 µM | 8.8 µM | 5.08 µM |
| CC[C@@]1(O)C(=O)OCc2c1cc1n(c2=O)Cc2cc3c([N+](=O)[O-])cccc3nc2-1 [RUBITECAN] | > 30 µM | > 30 µM | > 30 µM | > 30 µM | > 30 µM | > 10 µM | 3.65 µM | > 30 µM | > 30 µM | > 30 µM | > 30 µM | > 30 µM | > 30 µM |  | > 30 µM | > 30 µM |
| CC1=C(/C=C/C(C)=C/C=C/C(C)=C/C(=O)O)C(C)(C)CCC1 [TRETINOIN] | > 30 µM | > 30 µM | > 30 µM | > 30 µM | 22.6 µM | 14.3 µM | > 30 µM |  | > 30 µM | > 30 µM | > 30 µM | > 30 µM | > 30 µM |  | > 30 µM | 10.5 µM |
| CC(=O)Oc1cc(C(F)(F)F)ccc1C(=O)O [TRIFLUSAL] | > 30 µM | > 30 µM | > 30 µM | > 30 µM | > 30 µM | > 30 µM | > 30 µM | > 30 µM | > 30 µM | > 30 µM | > 30 µM | > 30 µM | > 30 µM |  | > 30 µM | > 30 µM |
